Reference: patent US20050245527A1, “Nitrogen containing heterocyclic compounds and medicines containing the same” (priority 2002, published 2005)

Assays:
anesthetized dogs = test: Evaluation of cardiovascular dynamics and electrocardiogram in anesthetized dogs; format: in vivo, dog; conditions: single administration; for HR / LVdP/dt / PQ interval / QRS interval / QTc interval / mAP: percent change vs value prior to administration; for effects on the cardiovascular system: summary of Tables 4 to 8
Excerpt: <Evaluation of Cardiovascular Dynamics and Electrocardiogram in Anesthetized Dogs> Method Anesthetized dogs were used for the experiment. After isolating the […], a microchip pressure transducer catheter was inserted therein, and the tip was situated near the aortic orifice and in the left ventricle, for measurement of the arterial pressure (AP) and left ventricular pressure (LVP). The LVP was differentiated using a differentiation unit, and the maximum value of the first derivative of the left ventricular pressure ([…] used as the index of the […] contractility. The heart rate (HR) was measured using an instantaneous heart rate counter, with the LVP waveforms as the trigger. A needle electrode was fixed to the right anterior limb and left and right posterior limbs, and a standard II-lead electrocardiogram was taken. The parameters were recorded on a recording sheet. The test substance was administered through the venous catheter inserted in the femoral vein. Administration of Test Substance and Recording Single Administration: The test substance was administered through the catheter for 1 minute. The electrocardiogram was recorded at 2 minutes after administration, and the change in the cardiovascular dynamic was recorded continuously for 10 minutes after the administration. After 10 minutes, the dose was increased and the recording was repeated. Continuous Intravenous Infusion: The test substance was administered through the catheter for a period of one minute, and then a sustained dose was administered by continuous intravenous infusion. The electrocardiogram was recorded at the 5 and 10 minute points, and the change in cardiovascular dynamic was recorded continuously for 10 minutes from the start of administration. After 10 minutes, the dose was increased and the recording was repeated. Analysis The HR, mean arterial pressure (mAP), LVdP/dtmax and electrocardiogram parameters (RR interval, PQ interval, QRS interval, QT interval) were read from the recording sheet. The QT interval was heart rate-corrected and represented as the QTc interval.

[1] = test system: left saphenous nerve of rats (ectopic firing); test: Inhibition of ectopic firing; format: in vivo; conditions: Rattus norvegicus, iv; rats with cut left saphenous nerve, urethane anesthesia, compound via catheter in right cervical vein, number of firings in 10 seconds; read-out: Inhibition of ectopic firing (ID50)
Method in brief: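 Rat left saphenous nerve transected near the knee (~3 mm excised); recorded more than a week later under urethane (1 g/kg) anesthesia. Compound given via right cervical vein catheter. Ectopic firing recorded with platinum hook electrode, scored as number of firings in 10 seconds.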

Compound	effects on the cardiovascular system (anesthetized dogs)	HR (anesthetized dogs; dose 1 mg/kg weight) [%]	LVdP/dt (anesthetized dogs; dose 1 mg/kg weight) [%]	PQ interval (anesthetized dogs; dose 1 mg/kg weight) [%]	QRS interval (anesthetized dogs; dose 1 mg/kg weight) [%]	QTc interval (anesthetized dogs; dose 1 mg/kg weight) [%]	mAP (anesthetized dogs; dose 1 mg/kg weight) [%]	HR (anesthetized dogs; dose 3 mg/kg weight) [%]	LVdP/dt (anesthetized dogs; dose 3 mg/kg weight) [%]	PQ interval (anesthetized dogs; dose 3 mg/kg weight) [%]	QTc interval (anesthetized dogs; dose 3 mg/kg weight) [%]	mAP (anesthetized dogs; dose 3 mg/kg weight) [%]	other results
Cc1cccc(C)c1OCC(C)N (centres unmarked) [Mexiletine]	exhibited effects on the cardiovascular system	–	–	–	–	–	–	–	–	–	–	–	HR (anesthetized dogs; dose 2.2 mg/kg weight): −2.8%; LVdP/dt (anesthetized dogs; dose 2.2 mg/kg weight): −20.8%; PQ interval (anesthetized dogs; dose 2.2 mg/kg weight): 0.7%; QRS interval (anesthetized dogs; dose 2.2 mg/kg weight): 1.8%; QTc interval (anesthetized dogs; dose 2.2 mg/kg weight): −3.0%; mAP (anesthetized dogs; dose 2.2 mg/kg weight): −6.2%; HR (anesthetized dogs; dose 6.6 mg/kg weight): −10.6%; LVdP/dt (anesthetized dogs; dose 6.6 mg/kg weight): −47.8%; PQ interval (anesthetized dogs; dose 6.6 mg/kg weight): 3.4%; QRS interval (anesthetized dogs; dose 6.6 mg/kg weight): 6.3%; QTc interval (anesthetized dogs; dose 6.6 mg/kg weight): −4.6%; mAP (anesthetized dogs; dose 6.6 mg/kg weight): −44.2%; ED50 [1]: 1 to 3 mg/kg
O=C(NCC1CCCCN1)c1cc(OCC(F)(F)F)ccc1OCC(F)(F)F (centres unmarked) [Flecainide]	exhibited effects on the cardiovascular system	−8.6	−18.2	8.8	6.4	2.3	−14.2	−24.8	−56.9	36.1	9.3	−42.9	QRS interval (anesthetized dogs; dose 3 mg/kg weight): 37.1%
CCN(CC)CCCN(c1ccccc1)C1Cc2ccccc2C1 [Aprindine]	exhibited effects on the cardiovascular system	–	–	–	–	–	–	–	–	–	–	–	HR (anesthetized dogs; dose 2 mg/kg weight): −12.8%; LVdP/dt (anesthetized dogs; dose 2 mg/kg weight): −29%; PQ interval (anesthetized dogs; dose 2 mg/kg weight): 14.2%; QTc interval (anesthetized dogs; dose 2 mg/kg weight): 4.5%; mAP (anesthetized dogs; dose 2 mg/kg weight): −34.7%; HR (anesthetized dogs; dose 4 mg/kg weight): −19.2%; LVdP/dt (anesthetized dogs; dose 4 mg/kg weight): −47.5%; QTc interval (anesthetized dogs; dose 4 mg/kg weight): −0.4%; PQ interval (anesthetized dogs): 36.8%; mAP (anesthetized dogs): −47.7%
Cc1cccc(C)c1NC(=O)CC12CCCN1CCC2 [Pilsicainide]	exhibited effects on the cardiovascular system	−1.0	−20.6	17.4	–	4.6	−3.2	−5.0	−31.7	55.1	5.3	−8.2	–
CN(C)CCC=C1c2ccccc2CCc2ccccc21 [Amitriptyline]	exhibited effects on the cardiovascular system	−4.0	−21.7	8.7	15.4	13.1	−25.4	–	–	–	–	–	HR (anesthetized dogs; dose 0.3 mg/kg weight): −2.9%; LVdP/dt (anesthetized dogs; dose 0.3 mg/kg weight): −5.9%; PQ interval (anesthetized dogs; dose 0.3 mg/kg weight): −1.5%; QRS interval (anesthetized dogs; dose 0.3 mg/kg weight): 0.4%; QTc interval (anesthetized dogs; dose 0.3 mg/kg weight): 1.9%; mAP (anesthetized dogs; dose 0.3 mg/kg weight): −0.9%
